Reference: patent US20240352069A1, “SYNTHETIC PEPTIDE, AND COSMETIC COMPOSITION OR PHARMACEUTICAL COMPOSITION AND APPLICATION THEREOF” (SHENZHEN WINKEY TECHNOLOGY CO., LTD., priority 2021, published 2024)
Each block holds one compound with its values, some of them ahead of it. Residues, ends and D or L forms follow the SMILES beside them. *: point of attachment. CH2CO2tBu = CC(C)(C)OC(=O)C*; Carboxymethyl = O=C(O)C*; Allyl = C=CC*; X1 = CCCCCCS*; SEt = CCS*

Key:
[1] = Stability of powders under high humidity (HPLC purity); format: physicochemical; settings: powder; for High humidity, Day 10 (purity): RH92.5%, 25° C., 10 days
Experimental: The powder samples of peptides (3)-(7) were placed under high humidity (RH92.5%, 25° C.) conditions for 10 days, and the purity changes of each sample were investigated by HPLC.

HaCaT cells [2] = assay: UVB light damage repair experiment (MTT), HaCaT; format: cell-based, human; settings: UVB irradiated, 12.5-100 ppm, 24 hours
Experimental: (§1) Human keratinocytes (HaCaT) were purchased from the Kunming Cell Bank of the Type Culture Collection Committee of the Chinese Academy of Sciences, and mouse skin fibroblasts (NIH3T3) were purchased from the Shanghai Cell Bank of the Type Culture Collection Committee of the Chinese Academy of Sciences.
Take cells in good exponential growth phase, add 0.25% trypsin digestion solution, digest to make adherent cells fall off, count 1×10^5-4×10^5 cells/mL, and make cell suspension.
Cells were seeded into 96-well plates at 10,000 cells/well, and the UVB photodamage model was established when the cells reached about 80% confluent. […]
After 24 hours, add 22 μL of 5 mg/mL MTT to each well, place in an incubator and incubate for 4 hours, discard the original solution, and add 150 μL/well of DMSO. After 5 minutes, use a microplate reader to read the reference OD values at 490 nm and 630 nm wavelengths.
By establishing a UVB light-damaged cell model, administering 24 hours after ultraviolet light irradiation, and using the MTT method to detect cell proliferation activity, the ability of the peptide of the present invention to repair light-damaged cells was evaluated.

HaCaT cells [3] = assay: Cell proliferation experiment (MTT), HaCaT; format: cell-based, human; settings: 24 hours
Source text: as §1
(§2) • a) Take cells in good condition in exponential growth phase, add 0.25% trypsin digestion solution, digest to make adherent cells fall off, count 1-4×10^5 cells/mL, and make cell suspension; • b) Appropriately dilute 2000 cells/well of the cell suspension and inoculate it on a 96-well plate at 200 μL/well, and culture it in a constant temperature CO2 incubator for 24 hours. • c) Change the medium, add the sample to be tested, 20 μL/well, and incubate for 24 hours; • d) Add the MTT reagent into the 96-well plate, 20 μL/well, and react in the incubator for 4 hours; • e) Aspirate the supernatant, add DMSO, 150 μL/well, and shake on a plate shaker for 5 minutes; • f) After 5 minutes, use a microplate reader to read the reference OD values at 490 nm and 630 nm wavelengths, and calculate the cell viability:
(§3) MTT method is a method to detect cell survival and growth. The measured OD value is directly proportional to cell activity. The larger the OD value, the higher the cell activity.

NIH3T3 cells = assay: Cell proliferation experiment (MTT), NIH3T3; format: cell-based, mouse; settings: 24 hours
Source text: as §1, §2, §3

HaCaT cells [4] = assay: Scratch test (cell migration); format: cell-based, human; settings: 24 hours after scratch; peptides 100 ppm, EGF 50 U/mL; vs normal control group
Experimental: Human keratinocytes (HaCaT) were purchased from the Kunming Cell Bank of the Type Culture Collection Committee of the Chinese Academy of Sciences.
The cryopreserved HaCaT cells were cultured, subcultured to about 5 passages according to the ratio of 1:2, and the cells with better growth were selected as the experimental objects. Cells were seeded in a 12-well plate at a density of 200,000 cells/well, with 2 mL of cell suspension in each well. After the cells adhered to the wall, the medium was replaced with 0.5% to 1% fetal bovine serum to maintain the cells for 24 hours to synchronize them. change. Scratch with a sterilized pipette tip, wash off the dropped cells with PBS, add the sample to be tested, continue to incubate in a 37° C., 5% CO2 incubator, and place it under an optical microscope after 24 hours to analyze the wound healing area.
The cell scratch migration test can reflect the proliferation and repair ability of the cells.

[5] = Stability of aqueous solutions (HPLC purity over time); format: physicochemical
Experimental: (§4) In Example 29, the HPLC chromatographic separation conditions were as follows: • Chromatographic column: Octadecyl bonded silica gel as filler 4.6*250 mm, 5 m • Mobile phase A: Acetonitrile (containing 0.09% trifluoroacetic acid) • Mobile phase B: 0.1% trifluoroacetic acid • Diluent: water • Flow rate: 1.0 ml/min; • Column temperature: 35° C.; • Detection wavelength: 215 nm; • Injection volume: 10 μl; • Running time: 32 min • Gradient elution table:
(§5) The test solution: Take an appropriate amount of this product and add water to dissolve and dilute to make a solution containing 1 mg per 1 ml.

[6] = Stability of powders at 25° C. and 40° C. (HPLC purity over time)
Experimental: as §4, §5

[7] = 12.5 ppm-100 ppm, vs PBS blank control

Compound: CCC(C)C(NC(=O)CNC(=O)C(CCSC)NC(=O)C(CCCNC(=N)N)NC(=O)C(Cc1ccccc1)NC(=O)C1CCCN1C(=O)C(C)N)C(=O)NC(CSCC(=O)OC(C)(C)C)C(=O)NC(C(=O)NC(C(=O)NC(CC(N)=O)C(=O)O)C(C)O)C(C)O (stereo not shown) [(4)] (H-APFRMGIC(CH2CO2tBu)TTN-OH; configuration not given here)
Day 0 (purity) [1]: 96.017%
High humidity, Day 10 (purity) [1]: 93.962%

Compound: CCSSCC(NC(=O)C(NC(=O)CNC(=O)C(CCSC)NC(=O)C(CCCNC(=N)N)NC(=O)C(Cc1ccccc1)NC(=O)C1CCCN1C(=O)C(C)N)C(C)CC)C(=O)NC(C(=O)NC(C(=O)NC(CC(N)=O)C(=O)O)C(C)O)C(C)O (stereo not shown) [(5)] (H-APFRMGIC(SEt)TTN-OH; configuration not given here)
Day 0 (purity) [1]: 97.482%
High humidity, Day 10 (purity) [1]: 94.603%

Compound: CCCCCCSSCC(NC(=O)C(NC(=O)CNC(=O)C(CCSC)NC(=O)C(CCCNC(=N)N)NC(=O)C(Cc1ccccc1)NC(=O)C1CCCN1C(=O)C(C)N)C(C)CC)C(=O)NC(C(=O)NC(C(=O)NC(CC(N)=O)C(=O)O)C(C)O)C(C)O (stereo not shown) [(6)] (H-APFRMGIC(X1)TTN-OH; configuration not given here)
Day 0 (purity) [1]: 96.235%
High humidity, Day 10 (purity) [1]: 95.719%

Compound: EGF: epidermal growth factor (EGF), 50 U/mL, positive group in the scratch test
scratch spacing (proliferation and migration) (HaCaT cells [4]): spacing was significantly shortened

Compound: H-Ala-Pro-Phe-Arg-Met-Gly-Ile-Cys-Thr-Thr-Asn-OH (H-APFRMGICTTN-OH) [Reference peptide A]
aqueous solution (purity) ([5]; Day 8 at room temperature): 80.880%
aqueous solution (purity) ([5]; Day 18 at room temperature): 72.693%
aqueous solution (purity) ([5]; Day 18 at room temperature, listed as reference peptide A): 72.693%
aqueous solution (purity) ([5]; Solution, Day 0): 88.030%
aqueous solution (purity) ([5]; Solution, Day 0, listed as reference peptide A): decreased significantly
powder (purity) ([6]; 25° C., Day 5): 85.913%
powder (purity) ([6]; 40° C., Day 5): 57.503%
powder (purity) ([6]; 40° C., Day 5, listed as reference peptide A): 57.503%
powder (purity) ([6]; powder, Day 0): 88.030%

Second part, led by results:

Day 0 (purity) [1]: 98.541%
High humidity, Day 10 (purity) [1]: 97.863%
Compound: CCC(C)C(NC(=O)CNC(=O)C(CCSC)NC(=O)C(CCCNC(=N)N)NC(=O)C(Cc1ccccc1)NC(=O)C1CCCN1C(=O)C(C)N)C(=O)NC(CSCC(=O)O)C(=O)NC(C(=O)NC(C(=O)NC(CC(N)=O)C(=O)O)C(C)O)C(C)O (stereo not shown) [(7)] (H-APFRMGIC(Carboxymethyl)TTN-OH; configuration not given here)

Day 0 (purity) [1]: 97.605%
High humidity, Day 10 (purity) [1]: 96.251%
Compound: C=CCSCC(NC(=O)C(NC(=O)CNC(=O)C(CCSC)NC(=O)C(CCCNC(=N)N)NC(=O)C(Cc1ccccc1)NC(=O)C1CCCN1C(=O)C(C)N)C(C)CC)C(=O)NC(C(=O)NC(C(=O)NC(CC(N)=O)C(=O)O)C(C)O)C(C)O (stereo not shown) [Peptide (3)] (H-APFRMGIC(Allyl)TTN-OH; configuration not given here)
effect on improving activity of photodamaged HaCaT cells compared among peptides (1)-(5) (HaCaT cells [2]): better effect on improving cell activity
impact on the activity of HaCaT cells compared among peptides (1)-(5) (HaCaT cells [3]; 12.5-100 ppm): greater impact on the activity of HaCaT cells
effect on the activity of HaCaT cells (MTT) (HaCaT cells [3]; [7]): could both improve the activity of HaCaT cells, promote their proliferation
impact on the activity of NIH3T3 cells compared among peptides (1)-(5) (NIH3T3 cells; 12.5-100 ppm): greater impact on the activity of NIH3T3 cells
effect on the activity of NIH3T3 cells (MTT) (NIH3T3 cells; [7]): could improve the activity of NIH3T3 cells and promote their proliferation
